In the Kinase Knowledgebase extract (Sharma et al. 2016):

Target: MAPK14 (human) (UniProt Q16539)
Test: Assessment of MAPK14 Kinase Activity by Fluorescence Anisotropy Kinase Binding Assay

Chain of MAPK14 (human) (Q16539 whole entry, looked up): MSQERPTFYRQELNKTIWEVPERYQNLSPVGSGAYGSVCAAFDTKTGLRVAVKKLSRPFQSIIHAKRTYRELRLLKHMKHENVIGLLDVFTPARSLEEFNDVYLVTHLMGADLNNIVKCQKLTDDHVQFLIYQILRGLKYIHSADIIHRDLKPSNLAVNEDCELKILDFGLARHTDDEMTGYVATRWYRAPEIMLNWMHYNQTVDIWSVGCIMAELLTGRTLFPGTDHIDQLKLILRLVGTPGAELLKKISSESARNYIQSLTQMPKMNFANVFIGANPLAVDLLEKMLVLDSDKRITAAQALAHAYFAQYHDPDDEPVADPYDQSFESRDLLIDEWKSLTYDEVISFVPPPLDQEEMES

Row | IC50 | Ki | Structure (SMILES)
1 | < 1 µM | – | O=c1ccc2c(-c3ccc(F)cc3)ccnc2n1-c1ccc(F)cc1
2 | < 1 µM | – | O=c1ccc2c(-c3ccc(F)cc3F)ccnc2n1-c1ccc(F)cc1
3 | < 1 µM | – | O=c1ccc2c(-c3ccccc3F)cccc2n1-c1ccc(F)cc1
4 | < 1 µM | – | O=c1ccc2c(-c3ccc(F)cc3F)cccc2n1-c1ccc(F)cc1
5 | < 1 µM | – | O=c1ccc2c(-c3ccc(F)cc3)cccc2n1-c1ccc(F)cc1
6 | – | 0.02 µM | O=c1ccc2c(-c3ccccc3Cl)nc(Br)cc2n1-c1ccccc1Cl

Further lines, the compound ahead of its results:

Row | Structure (SMILES) | IC50 | Ki
7 | O=c1ccc2c(-c3ccccc3Cl)cc(NC(CO)CO)cc2n1-c1ccccc1Cl | – | 0.02 µM
8 | O=c1ccc2c(-c3ccccc3)nccc2[nH]1 | < 1 µM | –
9 | COc1cc2c(ccc(=O)n2-c2ccccc2Cl)c(-c2ccccc2Cl)c1Br | – | 0.0126 µM
10 | O=c1ccc2c(-c3ccccc3Cl)nc(Cl)cc2n1-c1ccccc1Cl | – | 0.02 µM
11 | O=c1ccc2c(-c3ccccc3)nccc2n1Cc1ccccc1 | – | 0.02 µM
